Laboratory results taken from patent publication US11130780B2, “Inhibitors of growth factor activation enzymes” (Washington University, priority 2015, dated 2021).

Assays:
HGFA [1] = target: T1, HGFA (Homo sapiens, UniProt Q04756); experiment: HGFA competition assay of inhibitor and substrate; assay type: biochemical; conditions: 0, 0.25, 0.5, 1.0 μM inhibitor; Pefachrome
T1 construct: His6 tag (N); seven amino acid spacer and seven amino acid TEV cleavage site (N); Honey Bee melittin signal peptide (N); made in house; host or cells: High 5 insect cells (baculovirus; virus raised in Sf9)
T1 sequence (Q04756 373-655): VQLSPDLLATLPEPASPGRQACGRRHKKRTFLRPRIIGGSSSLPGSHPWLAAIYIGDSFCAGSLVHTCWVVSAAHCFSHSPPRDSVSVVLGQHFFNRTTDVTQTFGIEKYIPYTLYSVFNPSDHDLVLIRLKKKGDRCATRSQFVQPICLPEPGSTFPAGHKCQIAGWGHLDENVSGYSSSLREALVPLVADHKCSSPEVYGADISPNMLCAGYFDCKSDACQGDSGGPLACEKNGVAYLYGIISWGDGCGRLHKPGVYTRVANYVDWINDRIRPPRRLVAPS
Protocol: From the plots of the mean reaction velocity versus substrate concentration and the Michaelis-Menten enzyme kinetics equation within GraphPad Prism version 6.04 for Windows, the reaction Vmax and subsequent Km for each concentration of inhibitor was determined as shown in the FIG. 1.

HGFA [2] = target: T1, HGFA; experiment: Dilution recovery experiments with HGFA; assay type: biochemical; conditions: rapid 1:350 dilution; Boc-QLR-AMC 250 μM
Protocol: After incubating for 20 minutes at room temperature, these reactions were diluted rapidly (1:350) in TNC buffer containing 250 μM Boc-QLR-AMC substrate (˜7 times Kin). Activity was monitored by recording the change in fluorescence (excitation at 380 nm and emission at 460 nn) over time in a Biotek Synergy 2 plate reader. GraphPad Prism was used to plot the change in fluorescence over time.

HGFA [3] = target: T1, HGFA; experiment: Biochemical assay for proteolysis of pro-HGF by HGFA; conditions: immunoblot; inhibitors 0-12.5 μM; 1 nM HGFA
Protocol: (§1) In order to determine efficiency of our recombinant HGFA we performed a concentration response of HGFA using a fixed concentration of pro-HGF and pro-MSP.
(§2) After 30 minutes incubation at room temperature (25° C.), 25 ng of pro-HGF (R&D Systems, NKG011306A) was added. […] Proteins were transferred to Millipore Immobilon-P membranes (Billerica, Mass.) and then immunoblotted at 4° C. with anti-HGF antibody (R&D Systems, AF-294-NA) and HRP conjugated donkey anti-goat IgG (Santa Cruz, SC-2020) diluted 1:500 and 1:5000 in 5% milk/TBST (5% Carnation nonfat dried milk/10 mM Tris, 150 mM NaCl, 0.05% TWEEN 20, pH 8.0), respectively. Membranes were washed in TBST, immersed in Millipore Luminata Crescendo Westem-HRP Substrate for 5 minutes, and then exposures made on a BioRad ChemiDoc MP Imaging System (Hercules, Calif.). For pro-MSP proteolysis assays, the procedures were similar, except that the HGFA concentration was 75 nM, pro-MSP (R&D Systems ZN081306A) concentration was 50 ng per reaction, and 1:500 dilution of anti-MSP antibody (R&D Systems, AF352) was used for MSP detection during immunoblotting.

HGFA [4] = target: T1, HGFA; experiment: Biochemical assay for proteolysis of pro-MSP by HGFA; conditions: immunoblot; inhibitors 0-12.5 μM
Protocol: as §1, §2

[5] = test system: c-MET phosphorylation in MDA-MB-231 cells; experiment: c-MET phosphorylation (Y1234/1235) in MDA-MB-231 cells treated with HGFA processed pro-HGF; assay type: cell-based, human; conditions: pro-HGF/HGFA reactions, read-out: EC50, inhibition of c-MET phosphorylation
Excerpt: To show the inhibition provided by the tetrapeptide compounds would have effects on cell signaling through c-MET kinase, a phosphorylation assay using the invasive breast cancer cell line, MDA-MB-231 was developed. This cell line has high expression of c-MET and pro-HGFA but not pro-HGF.
MDA-MB-231 cells were maintained in RPMI medium (Sigma-Aldrich R8758, St. Louis, Mo.) containing 10% fetal bovine serum (Sigma F2442) and 1× Penicillin/Streptomycin (Pen/Strep) antibiotics (Thermo Fisher SV30010). […] After 18 hours, cells were switched to fresh starve media and then treated with HGFA Proteolysis reactions containing 1 nM HGFA, 50 ng pro-HGF and various amounts of inhibitors. […] Lysate aliquots were mixed with reducing SDS gel loading buffer and run on 10% PAGE.
Immunoblots were performed as described previously, except primary antibodies, anti-phospho cMet (Cell Signaling, CS3077) and anti-total cMet (Cell Signaling, CS3127) were used and diluted in 5% BSA/TBST. Secondary antibodies, HRP-anti rabbit antibody (CS7074) and HRP-anti mouse (CS7076) were used, respectively. All antibodies were used at a 1:1000 dilution. Images were obtained and quantitated using BioRad ChemiDoc MP Imaging System. cMet phosphorylation signals were normalized using the total cMet signals and % inhibition calculated using the ratio of inhibited versus uninhibited HGFA Proteolytic reactions. […]

[6] = test system: RON phosphorylation in T47D cells; experiment: RON phosphorylation sandwich ELISA in T47D cells; assay type: cell-based; conditions: HGFA-mediated pro-MSP stimulation
Protocol: Detection and quantification of pRON in T47D cells was performed using a sandwich ELISA assay. RON capture antibody (R&D Systems, AF691) was immobilized on high protein binding 96-well plates. Next, cell lysates are added to wells, followed by incubation with an anti-phosphotyrosine-HRP antibody and then addition of a TMB substrate. Optical density of wells was determined by reading plates at 450 nm in a plate reader.

Compound	mode of inhibition versus substrate (HGFA [1])	reversibility of HGFA inhibition (HGFA [2])	inhibition of pro-HGF activation by HGFA (HGFA [3])	inhibition of pro-MSP proteolysis by HGFA (HGFA [4])	EC50 [5]	RON phosphorylation (pRON) [6]
CC(=O)N[C@@H](CCCCN)C(=O)N[C@@H](CCC(N)=O)C(=O)N[C@@H](CC(C)C)C(=O)N[C@@H](CCCNC(=N)N)C(=O)c1nccs1 [Compound 5, Ac-KQLR(SEQ ID NO: 1)-kt]	competitive	reversible inhibitor	dose-dependent inhibition	dose-dependent inhibition	–	–
CC(=O)N[C@@H](CCCCN)C(=O)N[C@@H](CCCNC(=N)N)C(=O)N[C@@H](CC(C)C)C(=O)N[C@@H](CCCNC(=N)N)C(=O)c1nccs1 [Compound 5g, Ac-KRLR(SEQ ID NO: 8)-kt]	–	–	dose-dependent inhibition	dose-dependent inhibition	180 nM	–
CC(=O)N[C@@H](Cc1c[nH]c2ccccc12)C(=O)N[C@@H](CCCNC(=N)N)C(=O)N[C@@H](CC(C)C)C(=O)N[C@@H](CCCNC(=N)N)C(=O)c1nccs1 [Compound 5h, Ac-WRLR(SEQ ID NO: 9)-kt]	–	–	dose-dependent inhibition	dose-dependent inhibition	–	–
CC(=O)N[C@@H](CO)C(=O)N[C@@H](CCCNC(=N)N)C(=O)N[C@@H](CC(C)C)C(=O)N[C@@H](CCCNC(=N)N)C(=O)c1nccs1 [Compound 6e, Ac-SRLR(SEQ ID NO: 15)-kt]	–	–	–	dose-dependent inhibition	–	–
N=C(N)c1ccc2cc(OC(=O)c3ccc(N=C(N)N)cc3)ccc2c1 [Nafamostat, reference compound]	–	–	dose-dependent inhibition	dose-dependent inhibition	–	reduces pRON to background levels
